Results from US8557796B2, “Substituted 1-oxa-2,8-diaza-spiro [4,5] dec-2-ene derivatives and related treatment methods” (Gruenenthal GmbH, priority 2001, dated 2013).

Biological target: T1, 5HT-uptake (Rattus norvegicus, UniProt P31652)
T1 construct: synaptosomes from rat brain regions were freshly isolated; from tissue; host or cells: P2 synaptosome fraction from rat brain regions
Test: Serotonin uptake inhibition (5HT uptake) in synaptosomes
Type: biochemical
Settings: rat brain synaptosomes

T1 sequence (P31652 whole entry): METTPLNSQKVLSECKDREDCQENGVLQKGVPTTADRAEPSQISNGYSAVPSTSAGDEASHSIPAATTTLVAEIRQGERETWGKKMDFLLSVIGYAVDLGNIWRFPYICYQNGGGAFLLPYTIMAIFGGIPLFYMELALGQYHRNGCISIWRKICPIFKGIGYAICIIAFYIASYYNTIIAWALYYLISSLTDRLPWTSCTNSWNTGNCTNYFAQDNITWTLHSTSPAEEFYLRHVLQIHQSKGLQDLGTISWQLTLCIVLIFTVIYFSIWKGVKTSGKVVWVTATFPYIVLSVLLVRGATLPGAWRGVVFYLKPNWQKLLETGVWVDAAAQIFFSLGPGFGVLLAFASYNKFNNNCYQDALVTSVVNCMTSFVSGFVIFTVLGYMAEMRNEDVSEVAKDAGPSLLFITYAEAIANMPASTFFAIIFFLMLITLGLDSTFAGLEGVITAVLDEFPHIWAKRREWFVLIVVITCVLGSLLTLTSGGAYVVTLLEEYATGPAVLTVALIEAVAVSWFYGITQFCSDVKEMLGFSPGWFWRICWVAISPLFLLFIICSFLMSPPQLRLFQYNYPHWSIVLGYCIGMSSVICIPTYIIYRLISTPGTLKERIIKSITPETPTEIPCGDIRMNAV

inhibition at 10 µM [%] | Structure (SMILES) | 5HT-uptake, 10 μM, % inhibition [%]
52 | CCOC(=O)N1CCC(NC(=O)C2=NOC3(CCN(C(=O)c4ccc(F)cc4F)CC3)C2)CC1 [Example 56, 4-{[8-(2,4-difluoro-benzoyl)-1-oxa-2,8-diaza-spiro[4,5]dec-2-ene-3-carbonyl]-amino}-piperidine-1-carboxylic acid ethyl ester] | 
67 | COc1ccc(S(=O)(=O)N2CCC3(CC2)CC(C(=O)NC(CC(C)C)C(=O)OC(C)(C)C)=NO3)cc1 (centres unmarked) [Example 147, 2-{[8-(4-methoxy-benzenesulphonyl)-1-oxa-2,8-diaza-spiro[4,5]dec-2-ene-3-carbonyl]-amino}-4-methyl-pentanoic acid tert-butyl ester] | 
 | CCCC(=O)N1CCC2(CC1)CC(C(=O)NC1CCN(C(=O)OCC)CC1)=NO2 [Example 74, 4-[(8-butyryl-1-oxa-2,8-diaza-spiro[4,5]dec-2-ene-3-carbonyl)-amino]-piperidine-l-carboxylic acid ethyl ester] | 43
 | O=C(Cc1ccc(F)c(F)c1)N1CCN(C(=O)C2=NOC3(CCN(S(=O)(=O)c4cccc(C(F)(F)F)c4)CC3)C2)CC1 [Example 93] | 42
 | CN(CCc1c[nH]c2ccccc12)C(=O)C1=NOC2(CCN(S(=O)(=O)c3ccc(OC(F)(F)F)cc3)CC2)C1 [Example 16, 8-(4-trifluoromethoxy-benzenesulphonyl)-1-oxa-2,8-diaza-spiro[4,5]dec-2-ene-3 carboxylic acid [2-(1 H-indo1-3-yl)-ethyl]-methyl-amide] | 60
 | COc1ccc(OC)c(CN(Cc2ccco2)C(=O)C2=NOC3(CCN(S(=O)(=O)c4ccc(F)cc4)CC3)C2)c1 [Example 160] | 50
40 | COc1cccc(CNC(=O)C2=NOC3(CCN(S(=O)(=O)c4ccc(OC(F)(F)F)cc4)CC3)C2)c1 [Example 162, 8-(4-trifluoromethoxy-benzenesulphonyl)-1-oxa-2,8-diaza-spiro[4,5]dec-2-ene-3-carboxylic acid 3-methoxy-benzylamide] | 
52 | COc1ccc(CNC(=O)C2=NOC3(CCN(S(=O)(=O)c4cc(Cl)ccc4Cl)CC3)C2)cc1OC [Example 68, 8-(2,5-dichloro-benzenesulphonyl)-1-oxa-2,8-diaza-spiro[4,5]dec-2-ene-3-carboxylic acid 3,4-dimethoxy-benzylamide] | 
46 | O=C(NC1CCCCCCC1)C1=NOC2(CCN(S(=O)(=O)c3ccc(OC(F)(F)F)cc3)CC2)C1 [Example 86, 8-(4-trifluoromethoxy-benzenesulphonyl)-1-oxa-2,8-diaza-spiro[4,5]dec-2-ene-3-carboxylic acid cyclooctylamide] | 
54 | CN(C)S(=O)(=O)N1CCC2(CC1)CC(C(=O)N1CCN(c3ncnc4sccc34)CC1)=NO2 [Example 70, 3-(4-thieno[2,3-d]pyrimidin-4-yl-piperazine-1-carbonyl)-1-oxa-2,8-diaza-spiro[4,5]dec-2-ene-8-sulphonic acid dimethylamide] | 
46 | CC(=O)NCCNC(=O)C1=NOC2(CCN(S(=O)(=O)c3cc(F)ccc3C)CC2)C1 [Example 17, 8-(5-fluoro-2-methyl-benzenesulphonyl)-1-oxa-2,8-diaza-spiro[4,5]dec-2-ene-3 carboxylic acid (2-acetylamino-ethyl)-amide] | 
42 | CN(C)S(=O)(=O)N1CCC2(CC1)CC(C(=O)NCc1ccc(C(F)(F)F)c(F)c1)=NO2 [Example 72, 8-dimethylsulphamoyl-1-oxa-2,8-diaza-spiro[4,5]dec-2-ene-3-carboxylic acid 3-fluoro-4-trifluoromethyl-benzylamide] | 
48 | CCOC(=O)N1CCC(NC(=O)C2=NOC3(CCN(S(=O)(=O)c4cc([N+](=O)[O-])ccc4C)CC3)C2)CC1 [Example 90, 4-{[8-(2-methyl-5-nitro-benzenesulphonyl)-1-oxa-2,8-diaza-spiro[4,5]dec-2-ene-3-carbonyl]-amino}-piperidine-1-carboxylic acid ethyl ester] | 
50 | O=C(NCc1cc(F)ccc1F)C1=NOC2(CCN(S(=O)(=O)c3ccc(Cl)s3)CC2)C1 [Example 49, 8-(5-chloro-thiophene-2-sulphonyl)-1-oxa-2,8-diaza-spiro[4,5]dec-2-ene-3 carboxylic acid 2,5-difluoro-benzylamide] | 
42 | Cc1cnc(C(=O)N2CCN(C(=O)C3=NOC4(CCN(S(=O)(=O)c5ccc(F)cc5)CC4)C3)CC2)cn1 [Example 76, [8-(4-fluoro-benzenesulphonyl)-1-oxa-2,8-diaza-spiro[4,5]dec-2-ene-3-yl]-[4-(5-methyl-pyrazine-2-carbonyl)-piperazin-1-yl]-methanone] | 
 | CCOC(=O)CCNC(=O)C1=NOC2(CCN(S(=O)(=O)c3cc([N+](=O)[O-])ccc3C)CC2)C1 [Example 95] | 54
 | O=C(C1=NOC2(CCN(S(=O)(=O)Cc3ccccc3)CC2)C1)N1CCN(Cc2ccc3ccccc3c2)CC1 [Example 6, (4-naphthalen-2-ylmethyl-piperazin-l-yl)-(8-phenylmethane-sulphonyl-1-oxa-2,8 diaza-spiro[4,5]dec-2-en-3-yl)-methanone] | 54
40 | Cc1ccc(C(=O)N2CCC3(CC2)CC(C(=O)NCC2CC2)=NO3)c(F)c1F [Example 159, 8-(2,3-difluoro-4-methyl-benzoyl)-1-oxa-2,8-diaza-spiro[4,5]dec-2-ene-3-carboxylic acid cyclopropylmethyl-amide] | 
 | COC(=O)C(Cc1c[nH]c2ccccc12)NC(=O)C1=NOC2(CCN(S(=O)(=O)c3ccc(OC(F)(F)F)cc3)CC2)C1 (centres unmarked) [Example 1, 3-(1H-indo1-3-yl)-2-{[8-(4-trifluoromethoxy-benzene-sulphonyl)-1-oxa-2,8-diaza-spiro[4,5]dec-2-ene-3-carbonyl]-amino}-propionic acid methyl ester] | 47

Structure (SMILES) | inhibition at 10 µM [%] | 5HT-uptake, 10 μM, % inhibition [%]
CC(=O)N1CCC2(CC1)CC(C(=O)NCc1ccccc1)=NO2 [Example 48, 8-acetyl-1-oxa-2,8-diaza-spiro[4,5]dec-2-ene-3-carboxylic acid benzylamide] | 41 | 
CN1CCCC1CCNC(=O)C1=NOC2(CCN(S(=O)(=O)c3ccc(Cl)s3)CC2)C1 (centres unmarked) [Example 61, 8-(5-chloro-thiophene-2-sulphonyl)-1-oxa-2,8-diaza-spiro[4,5]dec-2-ene-3-carboxylic acid [2-(1-methyl-pyrrolidin-2-yl)-ethyl]-amide] | 72 | 
CN(Cc1cccnc1)C(=O)C1=NOC2(CCN(S(=O)(=O)c3cc(Cl)ccc3Cl)CC2)C1 [Example 92, 8-(2,5-dichloro-benzenesulphonyl)-1-oxa-2,8-diaza-spiro[4,5]dec-2-ene-3-carboxylic acid methyl-pyridin-3-ylmethyl-amide] | 51 | 
O=C(NCc1cccc(F)c1)C1=NOC2(CCN(S(=O)(=O)c3cccs3)CC2)C1 [Example 24, 8-(thiophene-2-sulphonyl)-1-oxa-2,8-diaza-spiro[4,5]dec-2-ene-3-carboxylic acid 3-fluorobenzylamide] | 40 | 
O=C(NC(c1ccccc1)c1ccccc1)C1=NOC2(CCN(S(=O)(=O)c3ccc(Cl)s3)CC2)C1 [Example 40, 8-(5-chloro-thiophene-2-sulphonyl)-1-oxa-2,8-diaza-spiro[4,5]dec-2-ene-3 carboxylic acid benzhydryl-amide] | 45 | 
O=C(NCc1cccs1)C1=NOC2(CCN(C(=O)c3ccccc3Cl)CC2)C1 [Example 152, 8-(2-chloro-benzoyl)-1-oxa-2,8-diaza-spiro[4,5]dec-2-ene-3-carboxylic acid (thiophen-2-ylmethyl)-amide] | 41 | 
O=C(C1=NOC2(CCN(S(=O)(=O)c3ccc(Cl)s3)CC2)C1)N1CCN(c2ccc(F)cc2)CC1 [Example 91, [8-(5-chloro-thiophene-2-sulphonyl)-1-oxa-2,8-diaza-spiro[4,5]dec-2-en-3-yl]-[4-(4-fluorophenyl)-piperazin-1-yl]-methanone] | 45 | 
Cc1ccc(S(=O)(=O)N2CCC3(CC2)CC(C(=O)NCc2cc(Cl)cc(Cl)c2)=NO3)cc1 [Example 63, 8-(toluene-4-sulphonyl)-1-oxa-2,8-diaza-spiro[4,5]dec-2-ene-3-carboxylic acid 3,5-dichlorobenzylamide] | 55 | 

Biological target: T2, NA transporter (Rattus norvegicus, UniProt Q9WTR4)
T2 construct: synaptosomes from rat brain regions were freshly isolated; from tissue; host or cells: P2 synaptosome fraction from hypothalamus of male rat brain
T2 sequence (Q9WTR4 1-597): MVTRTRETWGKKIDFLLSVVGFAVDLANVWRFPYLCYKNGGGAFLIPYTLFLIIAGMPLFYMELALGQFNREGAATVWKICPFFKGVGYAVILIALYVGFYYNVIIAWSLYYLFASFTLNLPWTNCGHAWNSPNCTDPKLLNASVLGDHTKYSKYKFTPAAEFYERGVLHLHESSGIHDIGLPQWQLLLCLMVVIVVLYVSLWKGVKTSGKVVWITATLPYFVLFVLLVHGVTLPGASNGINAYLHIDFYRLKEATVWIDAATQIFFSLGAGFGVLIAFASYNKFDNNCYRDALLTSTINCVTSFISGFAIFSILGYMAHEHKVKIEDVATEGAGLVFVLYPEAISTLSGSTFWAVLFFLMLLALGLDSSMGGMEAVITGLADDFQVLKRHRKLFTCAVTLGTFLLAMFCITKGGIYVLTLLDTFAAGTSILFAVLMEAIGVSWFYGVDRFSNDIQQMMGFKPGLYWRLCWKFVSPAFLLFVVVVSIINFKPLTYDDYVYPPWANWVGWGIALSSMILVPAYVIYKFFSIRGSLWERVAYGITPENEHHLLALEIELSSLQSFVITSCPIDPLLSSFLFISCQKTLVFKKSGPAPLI
Test: Noradrenalin uptake inhibition (NA-uptake) in synaptosomes
Type: biochemical
Settings: rat hypothalamus synaptosomes
From the text: Tests on Noradrenalin Uptake Inhibition (NA-Uptake Inhibition)
In order to be able to carry out these in vitro studies, synaptosomes from rat brain regions were freshly isolated.

inhibition at 10 µM [%] | Structure (SMILES)
46 | O=C(NCc1cccc(Cl)c1)C1=NOC2(CCN(S(=O)(=O)c3cccc(C(F)(F)F)c3)CC2)C1 [Example 132, 8-(3-trifluoromethyl-benzenesulphonyl)-1-oxa-2,8-diaza-spiro[4,5]dec-2-ene-3-carboxylic acid 3-chlorobenzylamide]
42 | O=C(C1=NOC2(CCN(S(=O)(=O)Cc3ccccc3)CC2)C1)N1CC=C(c2ccc(F)cc2)CC1 [Example 215, [4-(4-fluoro-phenyl)-3,6-dihydro-2H-pyridin-1-yl]-(8-phenylmethanesulphonyl-1-oxa-2,8-diaza-spiro[4,5]dec-2-en-3-yl)-methanone]
42 | Cc1ccc(S(=O)(=O)N2CCC3(CC2)CC(C(=O)Nc2ccc(Oc4ccccc4)cc2)=NO3)cc1 [Example 22, 8-(toluene-4-sulphonyl)-1-oxa-2,8-diaza-spiro[4,5]dec-2-ene-3-carboxylic acid (4-phenoxy-phenyl)-amide]

Structure (SMILES) | inhibition at 10 µM [%]
COc1ccc(S(=O)(=O)N2CCC3(CC2)CC(C(=O)NC2CCCC2OCc2ccccc2)=NO3)cc1 (centres unmarked) [Example 169, 8-(4-methoxy-benzenesulphonyl)-1-oxa-2,8-diaza-spiro[4,5]dec-2-ene-3-carboxylic acid (2-benzyloxy-cyclopentyl)-amide] | 64
O=C(NCc1ccccc1)C1=NOC2(CCN(C(=O)c3ccc(Br)cc3)CC2)C1 [Example 212, 8-(4-bromo-benzoyl)-1-oxa-2,8-diaza-spiro[4,5]dec-2-ene-3-carboxylic acid benzylamide] | 55
